From patent US20110237594A1, “FUNGICIDE HERETOCYCLYL-TRIAZINYL-AMINO DERIVATIVES” (priority 2008, published 2011) come the findings set out here.

The structures appear in SMILES notation.

The nature of series [1]: logP by HPLC on reversed phase columns (EEC directive 79/831 Annex V.A8). The conditions noted are these: gradient 10% to 95% acetonitrile.
The test system of a further series is Pyricularia oryzae. The series is classed as in vivo. The conditions noted are these: rice, protective, 250 ppm of active ingredient, evaluated 5 days after inoculation.
Another series concerns Rhizoctonia solani. The series can be described thus: Rhizoctonia test (rice) / protective. Type of series: in vivo. The conditions noted are these: 250 ppm of active ingredient, evaluated 4 days after inoculation. As for the experimental part:
To produce a suitable preparation of active compound, 1 part by weight of active compound is mixed with the stated amounts of solvent and emulsifier, and the concentrate is diluted with water to the desired concentration. To test for protective activity, young plants are sprayed with the preparation of active compound at the stated rate of application. One day after spraying, the plants are inoculated with a hypha of the causal agent of rice sheath blight (Rhizoctonia solani). The plants are then placed in an incubator at approximately 25° C. and a relative atmospheric humidity of approximately 100%.

Another series relates to Botrytis cinerea. Description: In vivo test on Botrytis cinerea (grey mould). The conditions noted are these: gherkin plants, sprayed 24 hours before contamination, dose 500 ppm, grading 5/7 days after contamination. As for the experimental part: Plants, used as controls, are treated with an aqueous solution not containing the active material. After 24 hours, the plants are contaminated by depositing drops of an aqueous suspension of Botrytis cinerea spores (150,000 spores per ml) on upper surface of the leaves. The spores are collected from a 15-day-old culture and are suspended in a nutrient solution composed of: • 20 g/L of gelatine; • 50 g/L of D-fructose; • 2 g/L of NH4NO3; • 1 g/L of KH2PO4. The contaminated cucumber plants are settled for 5/7 days in a climatic room at 15-11° C. […] Grading is carried out 5/7 days after the contamination, in comparison with the control plants. Under these conditions, good (at least 70%) or total protection is observed at a dose of 500 ppm with the following compound: A14

A further series concerns Pyrenophora teres. Description: In vivo test on Pyrenophora teres (barley net blotch). The conditions noted are these: barley plants, sprayed 24 hours before contamination, dose 500 ppm, grading 12 days after contamination. As for the experimental part: Barley plants (Express variety), sown on a 50/50 peat soil-pozzolana substrate in starter cups and grown at 12° C., are treated at the 1-leaf stage (10 cm tall) by spraying with the active ingredient prepared as described above. Plants, used as controls, are treated with an aqueous solution not containing the active material. After 24 hours, the plants are contaminated by spraying them with an aqueous suspension of Pyrenophora teres spores (12,000 spores per ml). The spores are collected from a 12-day-old culture. […] Grading is carried out 12 days after the contamination, in comparison with the control plants. Under these conditions, good (at least 70%) is observed at a dose of 500 ppm with the following compound: A14

The next series deals with Cochliobolus miyabeanus. Description: Cochliobolus test (rice) / protective. Type of series: in vivo. The conditions noted are these: 250 ppm of active ingredient, evaluated 4 days after inoculation.
[2] abbreviates: [c] LC-MS at pH 7.8, 0.001 molar ammonium hydrogen carbonate in water.
Setting [3] is: unmarked values: LC-MS at pH 2.7, 0.1% formic acid in water / acetonitrile.

Regarding `COCC(C)Nc1cc(-c2ncnc(Nc3ccc(OC)nc3)n2)ccn1` (centres unmarked) [Compound A1], the Lop p was 2.25[c]; in series [1] (setting [2]) and 1.3 in series [1] (setting [3]).

With `COc1ccc(Nc2ncnc(-c3ccnc(NCC(C)C)c3)n2)cn1` [Compound A2, N-(6-methoxypyridin-3-yl)-4-{2-[(2-methylpropyl)amino]pyridin-4-yl}-1,3,5-triazin-2-amine], the Lop p in series [1] (setting [2]) was 2.52[c].

As to `CCSCCNc1cc(-c2ncnc(Nc3ccc(OC)nc3)n2)ccn1` [Compound A4], the Lop p in series [1] (setting [2]) is 2.78[c].

On to `COc1ccc(Nc2ncnc(-c3ccnc(NC(C)CN(C)C)c3)n2)cn1` (centres unmarked) [Compound A5], for which the Lop p in series [1] (setting [2]) was 1.45[c].

For the molecule `C=C(C)CNc1cc(-c2ncnc(Nc3ccc(OC)nc3)n2)ccn1` [Compound A6], the Lop p in series [1] (setting [2]) was 2.57[c].

In the case of `COc1ccc(Nc2ncnc(-c3ccnc(NCCCSC)c3)n2)cn1` [Compound A7], in series [1] (setting [2]), the Lop p is 2.62[c].

On to `COc1ccc(Nc2ncnc(-c3ccnc(NCC(C)O)c3)n2)cn1` (centres unmarked) [Compound A8], for which the Lop p in series [1] (setting [2]) was 1.7[c].

As for `CCC(O)CNc1cc(-c2ncnc(Nc3ccc(OC)nc3)n2)ccn1` (centres unmarked) [Compound A9], the Lop p in series [1] (setting [2]) is 1.97[c].

With `COc1ccc(Nc2ncnc(-c3ccnc(NCCOC(C)C)c3)n2)cn1` [Compound A10], the Lop p in series [1] (setting [2]) was 2.53[c].

For the molecule `COc1ccc(Nc2ncnc(-c3ccnc(NCCC(C)C)c3)n2)cn1` [Compound A11], the Lop p in series [1] (setting [2]) is 3.27[c].

As for `COc1ccc(Nc2ncnc(-c3ccnc(NCCSC)c3)n2)cn1` [Compound A12], the Lop p in series [1] (setting [2]) is 2.44[c].

With `COc1ccc(Nc2ncnc(-c3ccnc(NCC4CCCO4)c3)n2)cn1` (centres unmarked) [Compound A13], the Lop p in series [1] (setting [2]) was 2.17[c].

For `CCC(C)Nc1cc(-c2ncnc(Nc3ccc(OC)nc3)n2)ccn1` (centres unmarked) [Compound A14], the efficacy with Pyricularia oryzae, in the series on Rhizoctonia solani and with Cochliobolus miyabeanus was ≥ 80% in each case. In addition, the “protection (good, at least 70%, or total)” value in the series with Botrytis cinerea was “at least 70%”. In addition, the “protection (good, at least 70%)” value with Pyrenophora teres is listed as “at least 70%”. Moreover, in series [1] (setting [2]), the Lop p was 2.47[c].

For the molecule `COCC(C)Nc1cc(-c2ncnc(Nc3ccsc3)n2)ccn1` (centres unmarked) [Compound A15], in series [1] (setting [3]), the Lop p worked out at 1.4.

Molecule `CC(C)CN(C)c1cc(-c2ncnc(Nc3ccsc3)n2)ccn1` [Compound A16] showed a Lop p in series [1] (setting [3]) of 1.86.

Turning to `CC(C)C(C)Nc1cc(-c2ncnc(Nc3ccsc3)n2)ccn1` (centres unmarked) [Compound A17], the Lop p in series [1] (setting [3]) came to 1.79.

`COCCNc1cc(-c2ncnc(Nc3ccsc3)n2)ccn1` [Compound A18] gave a Lop p in series [1] (setting [3]) of 1.28.

In series [1] (setting [3]), `CC(C)(C)OC(=O)Nc1cc(-c2ncnc(Nc3ccsc3)n2)ccn1` [Compound A19] showed a Lop p of 3.39.

Regarding `Nc1cc(-c2ncnc(Nc3ccsc3)n2)ccn1` [Compound A20], the Lop p in series [1] (setting [3]) amounted to 0.98.

In series [1] (setting [3]), `CN(CC1CC1)c1cc(-c2ncnc(Nc3ccsc3)n2)ccn1` [Compound A21] had a Lop p of 1.75.

With `CCC(C(C)OC)N(C)c1cc(-c2ncnc(Nc3ccsc3)n2)ccn1` (centres unmarked) [Compound A22], in series [1] (setting [3]), the Lop p is 2.14.

As for `CN(CC(F)(F)F)c1cc(-c2ncnc(Nc3ccsc3)n2)ccn1` [Compound A23], the Lop p in series [1] (setting [3]) amounted to 3.42.

Molecule `CN(CC1CCCO1)c1cc(-c2ncnc(Nc3ccsc3)n2)ccn1` (centres unmarked) [Compound A24] showed a Lop p in series [1] (setting [3]) of 1.59.

As for `COC1CCCN(c2cc(-c3ncnc(Nc4ccsc4)n3)ccn2)C1` (centres unmarked) [Compound A25], the Lop p in series [1] (setting [3]) amounted to 1.74.

The molecule `COCCN(C)c1cc(-c2ncnc(Nc3ccsc3)n2)ccn1` [Compound A26] yielded a Lop p in series [1] (setting [3]) of 1.45.

As for `C=CCN(C)c1cc(-c2ncnc(Nc3ccsc3)n2)ccn1` [Compound A27], the Lop p in series [1] (setting [3]) amounted to 1.48.

The molecule `CCCN(C)c1cc(-c2ncnc(Nc3ccsc3)n2)ccn1` [Compound A28] had a Lop p in series [1] (setting [3]) of 1.63.

In turn, `CCN(CC)c1cc(-c2ncnc(Nc3ccsc3)n2)ccn1` [Compound A29] gave a Lop p in series [1] (setting [3]) of 1.57.

In turn, `CCC(COC)Nc1cc(-c2ncnc(Nc3ccsc3)n2)ccn1` (centres unmarked) [Compound A30] gave a Lop p in series [1] (setting [3]) of 1.6.

`CCCC(C)Nc1cc(-c2ncnc(Nc3ccsc3)n2)ccn1` (centres unmarked) [Compound A31]: the Lop p in series [1] (setting [3]) turned out to be 1.84.

Consider `CC(C)CCN(C)c1cc(-c2ncnc(Nc3ccsc3)n2)ccn1` [Compound A32], for which the Lop p in series [1] (setting [3]) is 2.18.

Molecule `CC(C)=CCN(C)c1cc(-c2ncnc(Nc3ccsc3)n2)ccn1` [Compound A33] displayed a Lop p in series [1] (setting [3]) of 2.14.

`CN(c1cc(-c2ncnc(Nc3ccsc3)n2)ccn1)C1CCCC1` [Compound A34] registered a Lop p in series [1] (setting [3]) of 1.93.

Take `CN(C)c1cc(-c2ncnc(Nc3ccsc3)n2)ccn1` [Compound A35]: in series [1] (setting [3]), the Lop p was 1.22.

In series [1] (setting [3]), `O=CNc1cc(-c2ncnc(Nc3ccsc3)n2)ccn1` [Compound A36] had a Lop p of 1.9.
